How the values were obtained:
[1] = test system: cloned mammalian (mSlo or hSlo) BK channels heterologously expressed in Xenopus oocytes; test: BK-mediated outward current in Xenopus oocytes, two-electrode voltage clamp; assay type: cell-based, Xenopus oocyte; details: at 20 μM; IBTX-sensitive current; at least 5 oocytes
Description: The ability of compounds described in the present invention to open BK channels and increase whole-cell outward (K^+) BK-mediated currents was assessed under voltage-clamp conditions by determining their ability to increase cloned mammalian (mSlo or hSlo) BK-mediated outward current heterologously expressed in Xenopus oocytes [Butler, A., et al., Science, 261: 221-224 (1993); and Dworetzky, S. I., et al., Mol. Brain Res., 27: 189-193 (1994)]. The two BK constructs employed represent nearly structurally identical homologous proteins, and have proven to be pharmacologically identical in our tests. To isolate BK current from native (background, non-BK) current, the specific and potent BK channel-blocking toxin iberiotoxin (IBTX) [Galvez, A., et al., J. Biol. Chem., 265: 11083-11090 (1990)] was employed at a supramaximal concentration (50 nM). The relative contribution of BK channels current to total outward current was determined by subtraction of the current remaining in the presence of IBTX (non-BK current) from the current profiles obtained in all other experimental conditions (control, drug, and wash). […] All compounds were tested in at least 5 oocytes and are reported at the single concentration of 20 μM; the effect of the selected compounds of Formula I on BK current was expressed as the percent of control IBTX-sensitive current and is listed in Table 1. […]

[2] = test system: ICP/BP responses elicited by stimulation of the cavernous nerve; test: In vivo erectile function model, intracavernous pressure response to cavernous nerve stimulation; design: species or system rat; details: 0.1-1 mg/kg i.v.; anesthetized rats
Source text: The in vivo model on erectile function is described fully in the scientific literature (Rehman, J., Chenven, E., Brink, P. Peterson, B., Wolcott, B., Wen, Y. P., Melman, A., Christ, G.: Diminished neurogenic but not pharmacological erections in the 2- to 3-month experimentally diabetic F-344 rat. Am. J. Physiol. 272: H1960-H1971, 1997). Briefly, rats (250-600 g) were anesthetized using sodium pentobarbital, the abdomen opened and the cavernous nerve identified. A pressure catheter was placed in the right corpus cavernosum (crus) to measure intracavernous pressure (ICP). A second catheter was introduced into the carotid artery to measure blood pressure. Test compound (0.1, 0.3 and 1 mg/kg i.v.) or vehicle (PEG 400) was given via a catheter placed into the jugular vein.
Control intracavernous pressure responses were elicited by electrically stimulating the cavernous nerve via bipolar stimulating electrodes (20 Hz, 0.22 ms pulse width). Stimulus amplitude (0.2-20 mA) was adjusted to produce a submaximal intracavernous pressure response (typically 0.2 or 0.5 mA). A series of control intracavernous pressure responses were then obtained using a constant stimulus amplitude. Test compound or vehicle was then administered (200 μl i.v bolus) and the cavernous nerve was restimulated to evoke a cavernous pressure response at various times post-drug administration. […]

[3] = test system: permanent MCAO focal stroke model; test: Permanent focal ischemia, middle cerebral artery occlusion (MCAO) model; assay type: in vivo, spontaneously hypertensive rat; details: 0.003 mg/kg i.v. single bolus 2 hours after MCAO; infarct measured 24 hours after MCAO; vs vehicle-treated control
Source text: To determine the ability of these compounds to reduce cell loss resulting from neuronal ischemia, a standard rodent model of permanent focal ischemia, involving occlusion of the middle cerebral artery in the spontaneously hypertensive rat (middle cerebral artery occlusion (MCAO) model) was employed [Tamura, A., et al., Journal of Cerebral Blood Flow and Metabolism, Volume 1, 53-60, (1981)]. Selected compounds have been evaluated in the focal stroke model involving permanent MCAO in the spontaneously hypertensive rat. This procedure results in a reliably large neocortical infarct volume that is measured by means of vital dye exclusion in serial slices through the brain 24 hours after MCAO. In the present test, compounds were administered using an intravenous route of administration at 2 hours after occlusion.

SMILES	BK Current, percent increase over BK current in controls [1]	ICP/BP responses elicited by sub-maximal stimulation of the cavernous nerve [2]	melting point	reduction of cortical infarct volume [3]
O=c1[nH]c2ccc(C(F)(F)F)cc2c(-c2cc(Cl)ccc2O)c1CCO [Example 4, 4-(5-Chloro-2-hydroxyphenyl)-3-(2-hydroxyethyl)-6-(trifluoromethy)-2(1H)-quinolinone]	++ (++ = >200%)	produced an augmentation of the ICP/BP responses	–	–
COc1ccc(Cl)cc1-c1c(CCO)c(=O)[nH]c2ccc(C(F)(F)F)cc12 [Example 5, 4-(5-Chloro-2-methoxyphenyl)-3-(2-hydroxyethyl)-6-(trifluoromethyl)-2(1H)-quinolinone]	++ (++ = >200%)	–	216 to 217 °C	about 25%

Reference: US6353119B1, “Preparation of 3-substituted-4-arylquinolin-2-one derivatives” (Bristol-Myers Squibb Company, priority 1999, dated 2002)
